According to patent US12115149B2, “Formulations, methods, kits, and dosage forms” (MedRegen, LLC, priority 2020, dated 2024):
Like-named read-outs stand apart in the source and are kept apart here.

Key:
[1] = PK/PD study of Formulation A s.c. in SD rats; conditions: for absorption lag time after s.c. administration: Formulation A 0.744 ml/kg s.c.
Method: (§1) All samples were frozen and stored at −70° C. on receipt. The samples were analyzed by liquid chromatography with tandem mass spectral detection.

[2] = rat, in vivo, sc; for time by which cleared: SD
Method: as §1

[3] = PK/PD study of Formulation A s.c. in mini pigs; conditions: Formulation A 0.132 ml/kg s.c.
Method: as §1

[4] = Degradation of FK506 in a combination of the two APIs; format: physicochemical; conditions: combination of the two APIs in solution, earlier attempts; stated as 'may be'
[5] = pig, in vivo, sc
Method: as §1

[6] = cited from earlier work

Row | absorption lag time after s.c. administration [1] | time by which cleared [2] | plasma level at 3 hours [2] | blood level at 3 hours [3] | clearance from blood [3] | FK506 degraded [4] | time of peak plasma concentration ([1]; Formulation A 0.744 ml/kg s.c. (AMD3100 17.856 mg/kg, FK506 0.372 mg/kg), n=12) | blood level at 3 hours [5] | Compound | solubility in water [6]
1 | no observable lag time | ≤ 12 h | remained at high levels | remained at high levels | cleared rapidly after 12 hours |  |  |  | c1cc(CN2CCCNCCNCCCNCC2)ccc1CN1CCCNCCNCCCNCC1 [AMD3100] | 
2 | no observable lag time | ≤ 12 h | remained at high levels |  | cleared rapidly after 12 hours | About 50% | 1 h | remained at high levels | C=CC[C@@H]1/C=C(\C)C[C@H](C)C[C@H](OC)[C@H]2O[C@@](O)(C(=O)C(=O)N3CCCC[C@H]3C(=O)O[C@H](/C(C)=C/[C@@H]3CC[C@@H](O)[C@H](OC)C3)[C@H](C)[C@@H](O)CC1=O)[C@H](C)C[C@@H]2OC [FK506, Tacrolimus] | poor solubility in water
3 |  |  |  |  |  |  |  |  | AMD3100 octahydrochloride hydrate | 22 mg/mL
